Key:
ecDNA hubs in COLO320-DM = assay: ecDNA clustering by interphase DNA FISH, autocorrelation g(r); format: cell-based, human; conditions: 6 hours
Description: The Oligopaint FISH probe libraries were constructed as described previously 51 Each oligo consists of a 40 nucleotide (nt) homology to the hg19 genome assemble designed from the algorithm developed from the laboratory of Dr. Ting Wu (https://oligopaints.hms.harvard.edu/). Each library subpool consists of a unique sets of primer pairs for orthogonal PCR amplification and a 20 nt T7 promoter sequence for in vitro transcription and a 20 nt region for reverse transcription. Individual Oligopaint probes were generated by PCR amplification, in vitro transcription, and reverse transcription, in which ssDNA oligos conjugated with ATTO488 and ATTO647 fluorophores were introduced during the reverse transcription step. The Oligopaint covered genomic regions (hg19) used in this study are as follows: chr8: 116967673-118566852 (hg19_COLO_nonecDNA_1.5Mbp), chr8: 127435083-129017969 (hg19_COLO_ecDNA_1.5Mbp), chr8: 128729248-128831223 (hg19_PC3_ecDNA1_100 kb). A ssDNA oligo pool was ordered and synthesized from Twist Bioscience (San Francisco, CA). 15 mm #1.5 round glass coverslips (Electron Microscopy Sciences) were pre-rinsed with anhydrous ethanol for 5 min, air dried, and coated with L-poly lysine solution (100 μg/mL) for at least 2 hours. Fully dissociated ColoDM320 or PC3 cells were seeded onto the coverslips and recovered for at least 6 hours before experiments. Cells were fixed with 4% (v/v) methanol free paraformaldehyde diluted in 1×PBS at room temperature for 10 min. Then cells were washed 2× with 1×PBS and permeabilized in 0.5% Triton-X100 in 1×PBS for 30 min. After 2× wash in 1×PBS, cells were treated with 0.1M HCl for 5 min, followed by 3× washes with 2×SSC and 30 min incubation in 2×SSC+0.1% Tween20 (2×SSCT)+50% (v/v) formamide (EMD Millipore, cat #S4117). […]
To analyze the clustering of ecDNAs, we applied the autocorrelation function as described previously58 in Matlab (2019). g(r) estimates the probability of detecting another ecDNA signal at increasing distances from the viewpoint of an index ecDNA signal and is equal to 1 for a uniform, random distribution. Specifically, the pair auto-correlation function g(r^→) was calculated by the fast Fourier transform (FFT) method described by the equations below.
N(r^→) is the auto-correlation of a mask matrix that has the value of 1 inside the nucleus used for normalization. […] Autocorrelation functions were calculated first by converting the Cartesian coordinates to polar coordinates by Matlab cart2pol( ) function, binning by radius and by averaging within the assigned bins. […]

[1] = system: MYC mRNA in COLO320-DM cells; assay: MYC RNA measured by RT-qPCR in COLO320-DM; format: cell-based, human; conditions: 500 nM, 6 hours
Experimental: Cells were then treated for 6 hours with 500 nM JQ1 in DMSO unless otherwise indicated (Sigma-Aldrich SML1524) or an equivalent volume of DMSO.
RNA was extracted using RNeasy Plus mini Kit (QIAGEN 74136). Purified RNA was quantified by Nanodrop (Thermo Fisher). For RT-qPCR, 50 ng of RNA, 1× Brilliant II qRT-PCR mastermix with 1 μL RT/RNase block (Agilent 600825), and 200 nM forward and reverse primer were used. Each Ct value was measured using Lightcycler 480 (Roche) and each mean dCt was averaged from duplicate qRT-PCR reaction and performed in biological triplicate. Relative MYC RNA level (RT-qPCR primers MYC_exon3_fw and MYC_exon3_rv) was calculated by ddCt method compared to 18S and GAPDH controls (RT-qPCR primers GAPDH_fw, GAPDH_rv, 18S_fw, 18S_rv). P values were calculated using a Student's t-test by comparing the relative fold change of biological triplicates.
Approximately 0.6×10^6 COLO320-DM or COLO-320-HSR cells were plated in 6 well plates and cultured under standard conditions for 24 hours. Cells were then treated for 6 hours with one of the following: 500 nM JQ1 (Sigma-Aldrich SML1524), 500 nM MS645 (Sigma Aldrich SML2549), 1 μM THZ-1 (Selleck chemicals S7549), 20 μM SGC-SCP30 (Selleck chemicals S7256), 10 μM OICR-9429 (Selleck chemicals S7833), 50 μM MI-3 (Selleck chemicals S7619), 2 μM trichostatin A (Selleck chemicals S1045), or DMSO. […]

alpha-amanitin
ecDNA hub clustering (interphase DNA FISH, autocorrelation g(r)) (ecDNA hubs in COLO320-DM; 100 μg/mL alpha-amanitin): did not affect ecDNA hubs

OCCCCCCO [1,6-hexanediol]
ecDNA hub clustering (interphase DNA FISH, autocorrelation g(r)) (ecDNA hubs in COLO320-DM; 1% 1,6-hexanediol): did not affect ecDNA hubs

Cc1sc2c(c1C)C(c1ccc(Cl)cc1)=N[C@@H](CC(=O)NCCCCCCCCCCNC(=O)C[C@@H]1N=C(c3ccc(Cl)cc3)c3c(sc(C)c3C)-n3c(C)nnc31)c1nnc(C)n1-2 [MS645]
MYC mRNA level [1]: reduced ecDNA transcription and clustering similar to JQ1
ecDNA hub clustering (interphase DNA FISH, autocorrelation g(r)) (ecDNA hubs in COLO320-DM; 500 nM): reduced ecDNA transcription and clustering similar to JQ1

Reference: patent publication US20250304952A1, “DNA ELEMENT RESPONSIVE TO EXTRACHROMOSOMAL DNA IN CANCER CELLS” (The Board of Trustees of the Leland Stanford Junior …, priority 2021, published 2025)
